Data published in ChEMBL document CHEMBL2203254, “Anion inhibition studies of the fastest carbonic anhydrase (CA) known, the extremo-CA from the bacterium Sulfurihydrogenibium azorense” (Bioorg Med Chem Lett, 2012).
Where a name gives a salt, the structure may show the parent alone.

target: Carbonic anhydrase 2 (Homo sapiens, UniProt P00918); test: Inhibition of human cytosolic carbonic anhydrase 2 preincubated for 15 mins by stopped flow CO2 hydration assay

Work on O=S(=O)(O)ONOS(=O)(=O)O [SODIUM IMINODISULFATE] yielded a Ki of 760 µM.

target: not listed separately; test: Inhibition of Sulfurihydrogenibium azorense alpha-carbonic anhydrase preincubated for 15 mins by stopped flow CO2 hydration assay

O=[Te](=O)(O)O [SODIUM TELLURATE] and O=[Se](=O)(O)O [SODIUM SELENATE] are within 1.5-fold of each other in Ki: 410 µM for the first, 510 µM for the second.

[F-].[Na+] [SODIUM FLUORIDE] and [I-].[Na+] [SODIUM IODIDE] are within 1.5-fold of each other in Ki: 980 µM for the first, 870 µM for the second.

Compared with [O-][Cl+3]([O-])([O-])O [SODIUM PERCHLORATE], O=C([O-])[O-].[Na+].[Na+] [SODIUM CARBONATE] is lower in Ki: > 200000 µM for the first, 7600 µM for the second. The second binds more tightly here.

O=[As](O)(O)c1ccccc1 [PHENYLARSONIC ACID SODIUM SALT] and OB(O)c1ccccc1 [PHENYLBORONIC ACID SODIUM SALT] are within 1.5-fold of each other in Ki: 8 µM for the first, 7 µM for the second.

Going from F[B-](F)(F)F.[Na+] [SODIUM TETRAFLUOROBORATE] to [Br-].[Na+] [SODIUM BROMIDE], the Ki falls from > 200000 µM to 940 µM.

NS(N)(=O)=O [SULFURIC DIAMIDE SODIUM SALT] and NS(=O)(=O)O [SODIUM SULFAMATE] are within 1.5-fold of each other in Ki: 4 µM for the first, 5 µM for the second.

First: O=[N+]([O-])[O-].[Na+] [SODIUM NITRATE]
Second: O=S(=O)([O-])[O-].[Na+].[Na+] [SODIUM SULFATE ANHYDROUS]
The Ki of the first is 13-fold lower: 760 µM for the first, 10000 µM for the second.

N=C=[Se] [SODIUM ISOSELENOCYANATE] and N=C=S [SODIUM ISOTHIOCYANATE] are within 1.5-fold of each other in Ki: 490 µM for the first, 580 µM for the second.

Going from S [SODIUM HYDROSULFIDE] to CCN(CC)C(=S)S [DITIOCARB SODIUM], the Ki falls from 380 µM to 3 µM (130-fold). The second binds more tightly here.

First: O=C([O-])O.[Na+] [SODIUM BICARBONATE]
Second: O=S([O-])O.[Na+] [SODIUM BISULFITE]
The Ki of the first is 17-fold higher: 15700 µM for the first, 950 µM for the second. The second binds more tightly here.

Compared with O=P(O)(O)OP(=O)(O)O [SODIUM PYROPHOSPHATE], O=S(=O)(O)OOS(=O)(=O)O [SODIUM PERSULFATE] is 50-fold higher in Ki: 660 µM for the first, 32900 µM for the second.

First: O=S(=O)(O)ONOS(=O)(=O)O [SODIUM IMINODISULFATE]
Second: CC(=O)Nc1nnc(S(N)(=O)=O)s1 [ACETAZOLAMIDE]
The Ki of the first is far higher: 520 µM for the first, 0.0009 µM for the second. The second binds more tightly here.

First: S=C(S)S [SODIUM CARBONOTRITHIOATE]
Second: O=NO [SODIUM NITRITE]
The Ki of the first is 15-fold lower: 39 µM for the first, 580 µM for the second.

Going from [N-]=[N+]=[N-] [SODIUM AZIDE] to [Cl-].[Na+] [SODIUM CHLORIDE], the Ki rises from 340 µM to 850 µM (2.5-fold). The first binds more tightly here.

Compound O=BOB(O)OB(O)OB=O [SODIUM TETRABORATE] has a Ki of 490 µM.

target: Carbonic anhydrase 1 (Homo sapiens, UniProt P00915); test: Inhibition of human cytosolic carbonic anhydrase 1 preincubated for 15 mins by stopped flow CO2 hydration assay
Sequence (P00915 whole entry): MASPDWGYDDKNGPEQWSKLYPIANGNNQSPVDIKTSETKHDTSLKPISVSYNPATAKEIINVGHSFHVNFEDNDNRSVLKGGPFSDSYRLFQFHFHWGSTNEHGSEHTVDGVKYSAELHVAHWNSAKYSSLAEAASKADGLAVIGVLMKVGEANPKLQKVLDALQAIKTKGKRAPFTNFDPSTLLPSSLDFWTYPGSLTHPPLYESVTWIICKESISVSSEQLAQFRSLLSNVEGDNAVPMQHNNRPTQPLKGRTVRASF

Compared with N=C=[Se] [SODIUM ISOSELENOCYANATE], O=S(=O)(O)ONOS(=O)(=O)O [SODIUM IMINODISULFATE] is 3.6-fold higher in Ki: 85 µM for the first, 310 µM for the second.
